Measurements published in ChEMBL document CHEMBL1909046, “DrugMatrix in vitro pharmacology data”.

What was measured:
[1] = biological target: T1, Substance-K receptor (Homo sapiens, UniProt P21452); type: cell membranes, CHO, Membrane; details: cho; further: in other assays of this panel Not Active means under 50% inhibition at 10 µM
T1 sequence (P21452 whole entry): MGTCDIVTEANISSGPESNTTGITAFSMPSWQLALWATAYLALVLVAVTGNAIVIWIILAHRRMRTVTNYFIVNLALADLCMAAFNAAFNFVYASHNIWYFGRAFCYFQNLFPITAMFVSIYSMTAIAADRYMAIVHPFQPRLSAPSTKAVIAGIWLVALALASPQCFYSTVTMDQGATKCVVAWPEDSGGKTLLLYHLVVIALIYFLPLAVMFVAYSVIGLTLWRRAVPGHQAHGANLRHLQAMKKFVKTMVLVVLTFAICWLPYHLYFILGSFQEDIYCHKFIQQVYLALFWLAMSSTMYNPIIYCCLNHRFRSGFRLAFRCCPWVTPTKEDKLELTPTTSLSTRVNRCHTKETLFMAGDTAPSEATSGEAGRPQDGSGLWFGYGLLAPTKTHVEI

[2] = DRUGMATRIX: Imidazoline I2, Central radioligand binding (ligand: [3H] Idazoxan); type: cell membranes, Rattus norvegicus, Wistar, Cerebral cortex, Membrane; details: Not Active = under 50% inhibition at 10 µM
[3] = DRUGMATRIX: Calcium Channel Type L, Dihydropyridine radioligand binding (ligand: [3H] Nitrendipine); type: cell membranes, Rattus norvegicus, Wistar, Cerebral cortex, Membrane; details: Not Active = under 50% inhibition at 10 µM
[4] = biological target: Kappa-type opioid receptor (Homo sapiens, UniProt P41145); test: DRUGMATRIX: Opiate kappa (OP2, KOP) radioligand binding (ligand: [3H] Diprenorphine); type: cell membranes, HEK293, Membrane; details: hek293; Not Active = under 50% inhibition at 10 µM
Chain of Kappa-type opioid receptor (P41145 whole entry): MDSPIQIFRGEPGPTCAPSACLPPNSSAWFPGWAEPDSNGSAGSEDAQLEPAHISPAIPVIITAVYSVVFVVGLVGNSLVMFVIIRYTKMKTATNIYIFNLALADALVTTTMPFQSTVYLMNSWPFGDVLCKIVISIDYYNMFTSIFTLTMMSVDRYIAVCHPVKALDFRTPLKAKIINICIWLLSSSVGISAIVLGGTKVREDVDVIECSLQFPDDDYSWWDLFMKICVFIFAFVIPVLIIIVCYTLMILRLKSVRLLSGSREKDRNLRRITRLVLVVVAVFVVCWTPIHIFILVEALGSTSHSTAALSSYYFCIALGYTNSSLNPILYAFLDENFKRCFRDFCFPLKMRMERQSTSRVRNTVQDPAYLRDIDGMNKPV

[5] = biological target: T2, Cholecystokinin receptor type A (Homo sapiens, UniProt P32238); type: cell membranes, Membrane; details: 1321-n1; further: in other assays of this panel Not Active means under 50% inhibition at 10 µM
T2 sequence (P32238 whole entry): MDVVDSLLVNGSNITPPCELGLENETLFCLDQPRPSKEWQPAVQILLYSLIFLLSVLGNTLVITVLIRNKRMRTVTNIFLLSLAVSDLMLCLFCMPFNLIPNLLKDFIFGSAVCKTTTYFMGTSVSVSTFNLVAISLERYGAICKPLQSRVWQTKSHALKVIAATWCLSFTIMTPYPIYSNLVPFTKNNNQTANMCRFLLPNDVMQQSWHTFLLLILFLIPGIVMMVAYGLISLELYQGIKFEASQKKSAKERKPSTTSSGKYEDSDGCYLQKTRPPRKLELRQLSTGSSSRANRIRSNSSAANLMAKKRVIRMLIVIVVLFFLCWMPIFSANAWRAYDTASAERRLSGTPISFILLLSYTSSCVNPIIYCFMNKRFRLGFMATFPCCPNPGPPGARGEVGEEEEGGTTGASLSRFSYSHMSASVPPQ

[6] = biological target: Protein phosphatase 3 catalytic subunit alpha (Homo sapiens, UniProt Q08209); parameters: species or system Escherichia coli;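 further: inhibition of calcineurin (PP2B) enzyme activity, measured with DiFMUP as the substrate; in other assays of this panel Not Active means under 50% inhibition at 10 µM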
[7] = biological target: 5-hydroxytryptamine receptor 2B (Homo sapiens, UniProt P41595); type: cell membranes, CHO-K1, Membrane; details: cho-k1; further: in other assays of this panel Not Active means under 50% inhibition at 10 µM
Chain of 5-hydroxytryptamine receptor 2B (P41595 whole entry): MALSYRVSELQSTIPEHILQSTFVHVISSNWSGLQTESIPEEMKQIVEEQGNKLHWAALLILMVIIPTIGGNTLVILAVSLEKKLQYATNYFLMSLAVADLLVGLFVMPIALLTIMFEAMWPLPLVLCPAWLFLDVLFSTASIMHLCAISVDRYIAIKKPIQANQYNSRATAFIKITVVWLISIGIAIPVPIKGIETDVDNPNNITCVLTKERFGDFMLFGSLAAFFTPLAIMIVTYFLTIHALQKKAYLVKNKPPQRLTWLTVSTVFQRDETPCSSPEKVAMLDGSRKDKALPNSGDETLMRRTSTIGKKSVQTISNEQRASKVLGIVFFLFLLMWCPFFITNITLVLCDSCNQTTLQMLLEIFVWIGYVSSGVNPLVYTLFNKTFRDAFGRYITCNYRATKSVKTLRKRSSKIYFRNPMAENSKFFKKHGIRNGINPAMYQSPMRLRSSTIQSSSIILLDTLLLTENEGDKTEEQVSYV

[8] = DRUGMATRIX: ATPase, Na+/K+ enzyme inhibition (substrate: ATP); type: tissue-based, Sus scrofa, Heart; details: Not Active = under 50% inhibition at 10 µM
[9] = biological target: Mitogen-activated protein kinase 1 (Homo sapiens, UniProt P28482); test: DRUGMATRIX: Protein Serine/Threonine Kinase, ERK2 enzyme inhibition (substrate: Myelin Basic Protein); parameters: species or system Escherichia coli; details: Not Active = under 50% inhibition at 10 µM
Chain of Mitogen-activated protein kinase 1 (P28482 whole entry): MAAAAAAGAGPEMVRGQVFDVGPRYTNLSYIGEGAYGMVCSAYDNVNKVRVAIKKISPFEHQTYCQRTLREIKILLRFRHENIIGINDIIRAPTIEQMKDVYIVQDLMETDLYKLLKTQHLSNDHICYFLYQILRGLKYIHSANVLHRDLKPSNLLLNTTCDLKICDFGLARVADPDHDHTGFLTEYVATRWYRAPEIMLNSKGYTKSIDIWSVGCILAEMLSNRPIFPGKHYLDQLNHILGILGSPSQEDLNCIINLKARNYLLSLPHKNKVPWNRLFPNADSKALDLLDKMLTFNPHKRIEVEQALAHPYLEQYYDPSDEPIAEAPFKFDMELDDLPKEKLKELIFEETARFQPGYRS

[10] = biological target: Beta-1 adrenergic receptor (Homo sapiens, UniProt P08588); test: DRUGMATRIX: Adrenergic beta1 radioligand binding (ligand: [125I] Cyanopindolol); type: cell membranes, CHO-K1, Membrane; details: cho-k1; Not Active = under 50% inhibition at 10 µM
Chain of Beta-1 adrenergic receptor (P08588 whole entry): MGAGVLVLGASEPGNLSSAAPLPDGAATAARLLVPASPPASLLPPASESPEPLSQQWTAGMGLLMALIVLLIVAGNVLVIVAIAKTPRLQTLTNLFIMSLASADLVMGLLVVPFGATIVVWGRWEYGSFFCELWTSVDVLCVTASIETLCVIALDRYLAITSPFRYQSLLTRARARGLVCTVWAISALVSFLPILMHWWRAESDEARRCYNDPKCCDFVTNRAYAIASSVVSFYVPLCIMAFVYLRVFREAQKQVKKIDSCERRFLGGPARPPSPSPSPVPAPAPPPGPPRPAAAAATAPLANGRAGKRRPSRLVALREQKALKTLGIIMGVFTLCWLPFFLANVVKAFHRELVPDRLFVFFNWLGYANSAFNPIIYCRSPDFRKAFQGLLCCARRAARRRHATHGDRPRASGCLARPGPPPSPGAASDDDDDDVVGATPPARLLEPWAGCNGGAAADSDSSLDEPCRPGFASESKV

| Structure (SMILES) | IC50 [1] | IC50 [2] | Ki [2] | IC50 [3] | Ki [3] | IC50 [4] | IC50 [5] | IC50 [6] | IC50 [7] | IC50 [8] | Ki [8] | IC50 [9] | IC50 [10] | IC50 ([6]; read-out: IC50) |
| --- | --- | --- | --- | --- | --- | --- | --- | --- | --- | --- | --- | --- | --- | --- |
| COc1cc(NS(=O)(=O)c2ccc(N)cc2)nc(OC)n1 [SULFADIMETHOXINE] | Not Active | Not Active | Not Active | Not Active | Not Active | Not Active | Not Active | Not Active | Not Active | Not Active | Not Active | Not Active | Not Active |  |
| Cc1cc(C)nc(NS(=O)(=O)c2ccc(N)cc2)n1 [SULFAMETHAZINE] | Not Active | Not Active | Not Active | Not Active | Not Active | Not Active | Not Active | Not Active | Not Active | Not Active | Not Active | Not Active | Not Active |  |
| C[C@]1(Cn2ccnn2)[C@H](C(=O)O)N2C(=O)C[C@H]2S1(=O)=O [TAZOBACTAM] | Not Active | Not Active | Not Active | Not Active | Not Active | Not Active | Not Active | Not Active | Not Active | Not Active | Not Active | Not Active | Not Active |  |
| CN1C(C(=O)Nc2ccccn2)=C(O)c2sccc2S1(=O)=O [TENOXICAM] | Not Active | Not Active | Not Active | Not Active | Not Active | Not Active | Not Active | Not Active | Not Active | Not Active | Not Active | Not Active | Not Active |  |
| O=C1CCC(N2C(=O)c3ccccc3C2=O)C(=O)N1 (stereo not drawn) [THALIDOMIDE] | Not Active | Not Active | Not Active | Not Active | Not Active | Not Active | Not Active | Not Active | Not Active | Not Active | Not Active | Not Active | Not Active |  |
| Cc1cccc(Nc2ccncc2S(=O)(=O)NC(=O)NC(C)C)c1 [TORSEMIDE] | Not Active | Not Active | Not Active | Not Active | Not Active | Not Active | Not Active | Not Active | Not Active | Not Active | Not Active | Not Active | Not Active |  |
| CC(C)C[C@H](NC(=O)[C@@H](O)[C@H](N)Cc1ccccc1)C(=O)O [UBENIMEX] | Not Active | Not Active | Not Active | Not Active | Not Active | Not Active | Not Active | Not Active | Not Active | Not Active | Not Active | Not Active | Not Active |  |
| Cc1onc(-c2ccccc2)c1-c1ccc(S(N)(=O)=O)cc1 [VALDECOXIB] | Not Active | Not Active | Not Active | Not Active | Not Active | Not Active | Not Active | Not Active | Not Active | Not Active | Not Active | Not Active | Not Active |  |
| CC[C@]1(O)C[C@@H]2CN(CCc3c([nH]c4ccccc34)[C@@](C(=O)OC)(c3cc4c(cc3OC)N(C)[C@H]3[C@@](O)(C(=O)OC)[C@H](OC(C)=O)[C@]5(CC)C=CCN6CC[C@]43[C@@H]65)C2)C1 [VINBLASTINE] | Not Active | Not Active | Not Active | Not Active | Not Active | Not Active | Not Active | Not Active | Not Active | Not Active | Not Active | Not Active | Not Active |  |
| C[C@@H](N)[C@H]1CC[C@H](C(=O)Nc2ccncc2)CC1 [Y-27632] | Not Active | Not Active | Not Active | Not Active | Not Active | Not Active | Not Active | Not Active | Not Active | Not Active | Not Active | Not Active | Not Active |  |
| [Cl-].[Cl-].[Zn+2] [ZINC CHLORIDE] | Not Active | Not Active | Not Active | Not Active | Not Active | Not Active | Not Active |  | Not Active | Not Active | Not Active | Not Active | Not Active | 1100 nM |
